≈ marks a conversion by molar mass, not a printed value.
Tests used:
Experiment in all cases: MIC, broth microdilution
[1] = system: MRSA ATCC 700698 hVISA; type: cell-based, Staphylococcus aureus; details: MRSA ATCC 700698 hVISA
Method: (§1) Determination of Minimal Inhibitory Concentration (MIC) for Vancomycin, Teicoplanin and Tei-Analogs Versus Selected Strains
(§2) MICs were determined by the broth microdilution method. Specifically, 12 Colonies of the test strain were picked up from 18-24 hour agar cultures and freshly inoculated into broth mediums until reaching the turbidity of a 0.5 McFarland standard. The broth culture was adjusted with broth medium to approximately 1×10^8 CFUmL^−1. […] The plates were incubated in 37° C. for 18-24 hours and monitored for the wells of the positive control, where cells grew, and the wells of the negative control, where wells should not grow. The MIC value was determined for the concentration of a test compound, at which there was no visible growth in the well.

[2] = system: MRSA ATCC 700787 VRSA; type: cell-based, Staphylococcus aureus; details: MRSA ATCC 700787 VRSA
Method: as §1, §2

[3] = system: S. aureus ATCC 29213; type: cell-based, Staphylococcus aureus; details: SA ATCC 29213
Method: as §1, §2

[4] = system: E. faecalis ATCC 29302; type: cell-based; details: EF ATCC 29302
Method: as §1, §2

[5] = system: VRE ATCC 700221 (vanA); type: cell-based, enterococci; details: VRE ATCC 700221 (vanA)
Method: as §1, §2

[6] = system: VRE ATCC 700425 (vanC); type: cell-based, enterococci; details: VRE ATCC 700425 (vanC)
Method: as §1, §2

[7] = system: VRE ATCC 700802 (vanB); type: cell-based, enterococci; details: VRE ATCC 700802 (vanB)
Method: as §1, §2

[8] = system: A. baumannii ATCC 19606; type: cell-based, Acinetobacter baumannii; details: for MIC on AB: A. baumannii ATCC 19606
Method: as §1, §2

[9] = system: MRSA ATCC 43300; type: cell-based, Staphylococcus aureus; details: MRSA ATCC 43300
Method: as §1, §2

[10] = system: MRSA ATCC 700789 VRSA; type: cell-based, Staphylococcus aureus; details: MRSA ATCC 700789 VRSA
Method: as §1, §2

[11] = system: MRSA ATCC BAA-38; type: cell-based, Staphylococcus aureus; details: MRSA ATCC BAA-38
Method: as §1, §2

[12] = system: MRSA ATCC BAA-39; type: cell-based, Staphylococcus aureus; details: MRSA ATCC BAA-39
Method: as §1, §2

[13] = system: MRSA ATCC BAA-44; type: cell-based, Staphylococcus aureus; details: MRSA ATCC BAA-44
Method: as §1, §2

[14] = A. baumannii ATCC 19606, Table 3, first figure of cell
[15] = A. baumannii ATCC 19606, Table 3, second figure of cell

| Compound | MIC [1] [mg/L] | MIC [2] [mg/L] | MIC [3] [mg/L] | MIC [4] [mg/L] | MIC [5] [mg/L] | MIC [6] [mg/L] | MIC [7] [mg/L] | MIC on AB [8] [mg/L] | MIC [8, 14] [µM] | MIC [8, 15] [mg/L] | MIC [9] [mg/L] | MIC [10] [mg/L] | MIC [11] [mg/L] | MIC [12] [mg/L] | MIC [13] [mg/L] |
| --- | --- | --- | --- | --- | --- | --- | --- | --- | --- | --- | --- | --- | --- | --- | --- |
| CN(C)[C@H]1C(=O)N[C@@H]2Cc3ccc(c(Cl)c3)Oc3cc4cc(c3O)Oc3ccc(cc3Cl)[C@@H](O[C@@H]3O[C@H](CO)[C@@H](O)[C@H](O)[C@H]3NC(=O)CCCCCCCO)[C@@H]3NC(=O)[C@H](NC(=O)[C@@H]4NC(=O)[C@@H](NC2=O)c2cc(O)cc(c2)Oc2cc1ccc2O)c1ccc(O)c(c1)-c1c(O)cc(O)cc1[C@@H](C(=O)O)NC3=O [Compound 21] | 0.063 (≈ 0.0412 µM) | 0.125 (≈ 0.0817 µM) | 0.125 (≈ 0.0817 µM) | 1 (≈ 0.653 µM) | >16 | 8 (≈ 5.23 µM) | 8 (≈ 5.23 µM) | 152.84 (≈ 99.9 µM) | 100 | 152.84 | – | – | – | – | – |
| CN(C)[C@H]1C(=O)N[C@@H]2Cc3ccc(c(Cl)c3)Oc3cc4cc(c3O)Oc3ccc(cc3Cl)[C@@H](O[C@@H]3O[C@H](CO)[C@@H](O)[C@H](O)[C@H]3NC(=O)CCCCCCCN)[C@@H]3NC(=O)[C@H](NC(=O)[C@@H]4NC(=O)[C@@H](NC2=O)c2cc(O)cc(c2)Oc2cc1ccc2O)c1ccc(O)c(c1)-c1c(O)cc(O)cc1[C@@H](C(=O)O)NC3=O [Compound 22] | 0.125 (≈ 0.0817 µM) | 0.063 (≈ 0.0412 µM) | 0.031 (≈ 0.0203 µM) | 1 (≈ 0.654 µM) | >16 | 2 (≈ 1.31 µM) | 1 (≈ 0.654 µM) | – | 25 | 38.19 | – | – | – | – | – |
| N[C@H]1C(=O)N[C@@H]2Cc3ccc(c(Cl)c3)Oc3cc4cc(c3O)Oc3ccc(cc3Cl)[C@@H](O[C@@H]3O[C@H](CO)[C@@H](O)[C@H](O)[C@H]3NC(=O)CCCCCCCCCCCO)[C@@H]3NC(=O)[C@H](NC(=O)[C@@H]4NC(=O)[C@@H](NC2=O)c2cc(O)cc(c2)Oc2cc1ccc2O)c1ccc(O)c(c1)-c1c(O)cc(O)cc1[C@@H](C(=O)O)NC3=O [Compound 19] | 0.016 (≈ 0.0103 µM) | 0.016 (≈ 0.0103 µM) | 0.016 (≈ 0.0103 µM) | 0.25 (≈ 0.16 µM) | >16 | 1 (≈ 0.642 µM) | 0.5 (≈ 0.321 µM) | – | – | – | 0.063 (≈ 0.0404 µM) | 0.25 (≈ 0.16 µM) | 0.031 (≈ 0.0199 µM) | 0.016 (≈ 0.0103 µM) | 0.016 (≈ 0.0103 µM) |
| CN(C)[C@H]1C(=O)N[C@@H]2Cc3ccc(c(Cl)c3)Oc3cc4cc(c3O)Oc3ccc(cc3Cl)[C@@H](O[C@@H]3O[C@H](CO)[C@@H](O)[C@H](O)[C@H]3NC(=O)CCCCCCC[N+](C)(C)C)[C@@H]3NC(=O)[C@H](NC(=O)[C@@H]4NC(=O)[C@@H](NC2=O)c2cc(O)cc(c2)Oc2cc1ccc2O)c1ccc(O)c(c1)-c1c(O)cc(O)cc1[C@@H](C(=O)O)NC3=O [Compound 23] | 0.031 | 0.031 | 0.031 | 0.25 | >16 | 2 | 1 | 78.52 | 50 | 78.52 | – | – | – | – | – |
| CC(=O)NC1C(OC2c3ccc(c(Cl)c3)Oc3cc4cc(c3OC3OC(CO)C(O)C(O)C3NC(=O)CCCCCCCNC(=N)N)Oc3ccc(cc3Cl)CC3NC(=O)C(N(C)C)c5ccc(O)c(c5)Oc5cc(O)cc(c5)C(NC3=O)C(=O)NC4C(=O)NC3C(=O)NC2C(=O)NC(C(=O)O)c2cc(O)cc(OC4OC(CO)C(O)C(O)C4O)c2-c2cc3ccc2O)OC(CO)C(O)C1O (stereo not shown) [Compound 27] | – | – | – | – | – | – | – | – | 50 | 96.73 | – | – | – | – | – |
| C#CCCC(=O)N[C@H]1[C@H](O[C@@H]2c3ccc(c(Cl)c3)Oc3cc4cc(c3O)Oc3ccc(cc3Cl)C[C@H]3NC(=O)[C@H](N)c5ccc(O)c(c5)Oc5cc(O)cc(c5)[C@H](NC3=O)C(=O)N[C@H]4C(=O)N[C@H]3C(=O)N[C@@H]2C(=O)N[C@H](C(=O)O)c2cc(O)cc(O)c2-c2cc3ccc2O)O[C@H](CO)[C@@H](O)[C@@H]1O [Compound 13] | 0.063 (≈ 0.0437 µM) | 0.063 (≈ 0.0437 µM) | 0.063 (≈ 0.0437 µM) | 0.5 (≈ 0.347 µM) | >16 | 4 (≈ 2.78 µM) | 4 (≈ 2.78 µM) | – | – | – | 0.125 (≈ 0.0868 µM) | 1 (≈ 0.694 µM) | 0.063 (≈ 0.0437 µM) | 0.063 (≈ 0.0437 µM) | 0.031 (≈ 0.0215 µM) |
